Measurements from PubChem BioAssay (NCI).
Where “and” joins values, the source holds several entries; their conditions need not be identical. Equal entries are not always repeated.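 Each compound was tested at five concentrations against cells in 96-well plates for 48 hours. Here, GI50 denotes the concentration required for 50% inhibition of growth. Definition used: TGI = concentration required for complete inhibition of growth.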

How the values were obtained:
Assay in all cases: NCI tumour cell line growth inhibition, 48 h
[1] = tested on: DLD-1 colon
[2] = tested on: DMS 114 small cell lung
[3] = tested on: DMS 273 small cell lung
[4] = tested on: LXFL 529 NSCLC
[5] = tested on: XF 498 CNS
[6] = tested on: HOP-18 NSCLC
[7] = tested on: RXF-631 renal
[8] = tested on: P388/ADR leukemia
[9] = tested on: SN12K1 renal
[10] = tested on: P388 leukemia

`CSC1CC2C(CC1(C)O)C2(C)C` (configuration not stated) was tested, and the TGI [1] was > 100 µM, the GI50 [2] was 15.7 µM and > 100 µM and the TGI [2] was 72.1 µM and > 100 µM. For the same compound, the TGI [3] was > 100 µM, the TGI [4] was > 100 µM and the GI50 [5] was 16.4 µM and > 100 µM. The TGI [5] was 79.1 µM and > 100 µM.

In the case of `CCC12C[N+]3([O-])CCc4c([nH]c5ccccc45)C(C(=O)OC)(c4cc5c(cc4OC)N(C)C4C(O)(C(=O)OC)C(OC(C)=O)C6(CC)C=CCN7CCC54C76)CC(C3)C1O2` (configuration not stated), the TGI [1] is reported as 30.9 µM, the TGI [2] is reported as 4.28 µM and the TGI [3] is reported as 12.2 µM. The TGI [6] was 47.5 µM, the TGI [4] was 24.6 µM and the TGI [5] was 15.3 µM.

For `CC(C)(C)C1=Cc2cc3cc(C(C)(C)C)[nH]c(=O)c3cc2S(=O)(=O)N1`, the TGI [1] was > 100 µM, the TGI [2] was 44.4 µM and the TGI [4] was 76.7 µM.

With `CCN(CC)CCNc1ccc2nnn3c4ccc(OC)cc4c(=O)c1c23` the TGI [1] was 22 µM, the TGI [2] was 21.2 µM and the TGI [6] was 23.2 µM. For the same compound, the TGI [4] was 21.4 µM and the TGI [7] was 16.3 µM.

For `CCC(C(=O)O)c1ccc(OCc2ccccc2)cc1` (configuration not stated), the TGI [1] was > 100 µM, the TGI [2] was > 100 µM and the TGI [3] was > 100 µM. For the same compound, the TGI [4] was > 100 µM and the TGI [5] was > 100 µM.

For `NC(=O)C(=O)N/N=C1/c2ccccc2CC1C1(O)C(=O)Nc2c(Cl)cc(Cl)cc21` (configuration not stated), the TGI [1] was > 100 µM, the TGI [2] was > 100 µM and the TGI [3] was > 100 µM. The TGI [6] was > 100 µM and the TGI [5] was > 100 µM.

In the case of `C=C1C(O)C2(O)OCC34C(CC5C(C)=CC(=O)C(O)C5(C)C23)OC(=O)C(OC(=O)C/C=C(\C)CCCCC)C14` (configuration not stated), the TGI [1] is reported as 0.159 µM, the TGI [2] is reported as 0.0161 µM and the TGI [6] is reported as 1.1 µM. It also gave a TGI [8] of 0.454 µM, a TGI [9] of 0.016 µM and a TGI [5] of 0.0232 µM.

For `COc1cc(/C=C/C(=O)O)ccc1C(=O)O/C=C/c1ccccc1`, the TGI [1] was > 100 µM, the TGI [2] was > 100 µM and the TGI [3] was > 100 µM. The TGI [6] was > 100 µM, the TGI [10] was > 100 µM and the TGI [8] was 68.9 µM. The TGI [9] was > 100 µM and the TGI [5] was > 100 µM.

`COCOc1ccc(OC)cc1` was tested, and the TGI [1] was > 100 µM, the TGI [3] was > 100 µM and the TGI [6] was > 100 µM. For the same compound, the TGI [10] was > 100 µM, the TGI [8] was > 100 µM and the TGI [9] was > 100 µM. The TGI [5] was > 100 µM.

For `C=C1C(=O)OC2/C=C(\CO)C(OC(C)=O)CC(O)/C(C)=C/C(OC(=O)C(C)CC)C12` (configuration not stated), the TGI [1] was 26.5 µM, the TGI [2] was > 56.8 µM and the TGI [3] was 38 µM. For the same compound, the TGI [6] was 38.5 µM, the TGI [4] was 28.3 µM and the TGI [7] was > 100 µM. It also gave a TGI [5] of 29.7 µM.

`C/C(=C\c1ccccc1)C(=O)CCN1CCOCC1` showed a TGI [1] of 33.4 µM, a TGI [2] of 35.2 µM and a TGI [3] of 35.3 µM. The TGI [6] was 32.3 µM, the TGI [10] was 36.1 µM and the TGI [8] was > 55.1 µM. For the same compound, the TGI [9] was 32.8 µM and the TGI [5] was 33.3 µM.
